Assay results from patent US20160311826A1, “SGC STIMULATORS” (IRONWOOD PHARMACEUTICALS, INC., priority 2013, published 2016).
One block for each molecule: values may come before it.

What was measured:
[1] = target: T1, soluble guanylate cyclase (sGC) (Homo sapiens, UniProt Q02108+Q02153); test: sGC-HEK-cGMP assay with LC/MS detection; type: cell-based; details: HEK293 cells, 10 μM DETA-NONOate; concentration eliciting 50% of high control response (30 μM Compound Y); read-out: sGC_HEK_LC MS EC50 Abs
T1 construct: endogenously expressing soluble guanylate cyclase (sGC); endogenous in cells; host or cells: HEK293
T1 sequence (Q02153 1-619): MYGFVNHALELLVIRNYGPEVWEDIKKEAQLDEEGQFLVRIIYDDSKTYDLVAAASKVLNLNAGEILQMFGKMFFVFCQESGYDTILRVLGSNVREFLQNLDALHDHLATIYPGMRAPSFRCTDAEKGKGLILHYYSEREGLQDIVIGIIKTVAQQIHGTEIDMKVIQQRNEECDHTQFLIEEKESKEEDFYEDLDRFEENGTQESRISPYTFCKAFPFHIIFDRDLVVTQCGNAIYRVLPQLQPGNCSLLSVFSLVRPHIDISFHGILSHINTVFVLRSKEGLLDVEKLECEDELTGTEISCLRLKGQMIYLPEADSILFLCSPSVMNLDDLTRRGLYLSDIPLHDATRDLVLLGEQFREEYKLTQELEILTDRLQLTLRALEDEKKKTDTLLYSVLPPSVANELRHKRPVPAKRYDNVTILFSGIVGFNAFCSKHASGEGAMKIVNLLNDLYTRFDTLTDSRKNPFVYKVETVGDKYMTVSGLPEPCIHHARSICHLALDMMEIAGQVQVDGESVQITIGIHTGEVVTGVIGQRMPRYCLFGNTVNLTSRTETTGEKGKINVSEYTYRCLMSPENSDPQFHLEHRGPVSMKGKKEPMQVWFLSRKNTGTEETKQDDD
T1 sequence (Q02108 1-690): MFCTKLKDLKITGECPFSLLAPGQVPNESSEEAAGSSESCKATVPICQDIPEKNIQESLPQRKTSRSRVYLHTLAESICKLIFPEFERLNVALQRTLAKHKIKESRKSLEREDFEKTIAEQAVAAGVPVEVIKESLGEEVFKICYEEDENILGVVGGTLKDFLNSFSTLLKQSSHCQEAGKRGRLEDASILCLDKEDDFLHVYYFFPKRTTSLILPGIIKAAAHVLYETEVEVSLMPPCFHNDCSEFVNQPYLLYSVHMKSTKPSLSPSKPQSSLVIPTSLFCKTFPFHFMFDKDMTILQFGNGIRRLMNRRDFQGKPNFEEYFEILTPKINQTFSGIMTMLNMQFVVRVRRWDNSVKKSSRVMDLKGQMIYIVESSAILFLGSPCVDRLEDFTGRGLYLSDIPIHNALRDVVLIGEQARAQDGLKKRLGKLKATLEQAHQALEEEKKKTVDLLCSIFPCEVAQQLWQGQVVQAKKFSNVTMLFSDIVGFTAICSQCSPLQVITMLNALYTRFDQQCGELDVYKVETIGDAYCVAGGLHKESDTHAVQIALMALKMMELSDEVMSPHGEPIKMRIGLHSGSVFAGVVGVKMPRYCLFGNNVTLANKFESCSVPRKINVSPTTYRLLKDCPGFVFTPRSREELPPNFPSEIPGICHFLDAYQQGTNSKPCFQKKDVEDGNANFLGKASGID
Method: Human embryonic kidney cells (HEK293), endogenously expressing soluble guanylate cyclase (sGC), were used to evaluate the activity of test compounds. Compounds stimulating the sGC enzyme should cause an increase in the intracellular concentration of cGMP. HEK 293 cells were seeded in Dulbecco's Modification of Eagle's Medium supplemented with fetal bovine serum (10% final) and penicillin (100 U/mL)/streptomycin (100 ug/mL) in a […] at a density of 1.5×10^4 cells/well in a poly-D-lysine coated 384 well flat bottom plate. Cells were incubated overnight at 37° C. in a humidified chamber with 5% CO2. Medium was aspirated and cells were washed with 1× Hank's Buffered Saline Salt Solution […]. Cells were then incubated for 15 minutes at 37° C. with 50 μL of a 0.5 mM 3-isobutyl-1-methylxanthine (IBMX) solution. Test article and Diethylenetriamine NONOate (DETA-NONOate) solutions (x μM concentration for test article solution and 10 μM concentration for DETA-NONOate solution; wherein x is one of the following concentrations);
were then added to the assay mixture and the resulting mixture incubated at 37° C. for 20 minutes. After the 20 minute incubation, the assay mixture was aspirated and 10% acetic acid containing 150 ng/mL+3-cGMP (internal standard for LCMS) (50 μL) was added to the cells. The plate was incubated at 4° C. for 30 minutes in the acetic acid solution to stop the reaction and lyse the cells. The plates were then centrifuged at 1,000g for 3 minutes at 4° C. and the supernatant transferred to a clean reaction plate for LCMS analysis.
cGMP concentrations were determined from each sample using the LCMS conditions below (Table 2) and calculated standard curve. The standard curve was prepared in 10% acetic acid with 150 ng/mL+3cGMP (isotopically labelled cGMP with a weight 3 units higher than wild type) with the following final concentrations of cGMP in ng/mL: 1, 5, 10, 50, 100, 250, 500, 1000, 2000.
Data were normalized to a high control using the following equation: 100*(Sample−Low Control)/(High Control−Low Control), where the low control is the average of 16 samples treated with 1% DMSO, and the high control is the average of 16 samples treated with 30 μM of Compound Y depicted below. Data were fit using a 4-parameter fit (log(agonist) vs. response−variable slope) using GraphPad Prism Software v.5. n=2 for all compounds. The Absolute EC50 was interpolated from the curve fit and is defined as the concentration at which a given compound elicits 50% of the high control response. Compounds failing to elicit a minimum response of 50% are reported as >30 μM. For compounds run in duplicate or n higher than 2, the result herein given is the geometric mean of the several results obtained.
Code definitions for the whole cell HEK assay values, expressed as Absolute EC50 which is defined as the concentration at which a given compound elicits 50% of the high control response (Compound Y). Compounds failing to elicit a minimum response of 50% are reported as *.

[2] = target: T2, human recombinant soluble guanylate cyclase enzyme α1β1 (h sGC) (Homo sapiens, UniProt Q02108+Q02153); test: Purified human recombinant sGC α1β1 enzyme assay in the presence of DETA-NONOate (cGMP HTRF); type: biochemical; details: 30 uM DETA NONOate; concentration eliciting 50% of high control response (30 uM Compound Y); read-out: sGC_Enz_HTRF_a1b1 EC50 Abs
T2 construct: purchased Enzo Life Sciences ALX-201-177
T2 sequence (Q02108 1-690): T1 sequence (Q02108 1-690)
T2 sequence (Q02153 1-619): T1 sequence (Q02153 1-619)
Method: Purified human recombinant soluble guanylate cyclase enzyme α1β1 (h sGC) obtained from Enzo Life Sciences (P/N: ALX-201-177) was used to evaluate the activity of test compounds. The assay reactions contained 0.1 M Tris (pH 8.0), 0.5 mg/mL BSA, 2 mM DTT, 4 mM MgCl2, 30 uM DETA NONOate (Enzo Life Science P/N: ALX-430-014), and 12.5 ng/ml human soluble guanylate cyclase enzyme. […] Guanosine 5′-triphosphate (Sigma-Aldrich P/N: G8877) was added to a final concentration of 300 μM and enzyme reactions were incubated (100 μL, 384-well plate format) at 37° C. for 20 minutes. The controls contained 3% DMSO (low control), or 30 uM of Compound Y (high control). After the 20 minute incubation, the reaction was stopped with the addition of 100 μL of ice cold 20% acetic acid.
cGMP concentrations in all samples were determined using the cGMP HTRF (Cisbio P/N: 62GM2PEC) assay per manufacturer's instructions. A cGMP standard curve was fit using a 4-parameter fit (log(inhibitor) vs. response—variable slope) using GraphPad Prism Software v.6. Samples were diluted appropriately to ensure that values fell within the linear range of the standard curve. The EC50 was interpolated from the curve fit and is defined as the concentration at which the compound elicits 50% of the maximal response of the 30 uM of Compound Y, the high control compound.

[3] = tested on: Guinea pig tracheal smooth muscle (GPTSM) contraction; test: Electrical field stimulated guinea pig tracheal smooth muscle contraction (ex vivo); details: sub-maximal EFS, cumulative dose response curve, three animals pooled; read-out: IC50, inhibition of EFS-induced tracheal smooth muscle contraction
Method: Electrical Field Stimulated Guinea Pig Tracheal Smooth Muscle In Vitro (ex vivo) model for the Assessment of Bronchodilation.
It is possible to assess the bronchodilating effects of sGC stimulators by using the system described below. […]
On each experimental day, a guinea pig is killed by exposure to a rising concentration of CO2 and the trachea removed. […] Tissues are washed with Kreb's buffer and stimulated using the previously determined sub-maximal voltage for 1 hour to establish a stable baseline contraction prior to assessment of compound activity.
A cumulative dose response curve (DRC) to each test substance is then performed and changes in smooth muscle contraction measured. The effect of each test substance in each experiment is expressed as a percentage inhibition of the baseline contraction, normalized to the relevant vehicle controls. […] The data from all three experiments are pooled, the DRC plotted, and the test substance potency and efficacy determined.

[4] = tested on: sickle mice; details: oral, high doses; cited from earlier work
[5] = tested on: mdx mouse; details: cited from earlier work
[6] = tested on: dystrophin-deficient zebra fish; details: cited from earlier work
[7] = tested on: sickle cell disease patients with PHT; details: cited from earlier work
[8] = tested on: adult sickle cell disease patients; details: infusions; cited from earlier work
[9] = tested on: sickle cell disease patients with VOE; details: cited from earlier work

EC50 [1]: > 30000 nM | EC50 [2]: > 5000 nM
Molecule: CC(C)Oc1cc(-c2nc(N)c3c(n2)NC(=O)C3(C)C(N)=O)nn1Cc1ccccc1F (stereo not shown) [Compound I-39, 4-amino-2-(5-isopropoxy-1-(2-fluorobenzyl)-1H-pyrazol-3-yl)-5-methyl-6-oxo-6,7-dihydro-5H-pyrrolo[2,3-d]pyrimidine-5-carboxamide]

Molecule: CC(C)[N+]1(C)[C@@H]2CC[C@H]1C[C@@H](OC(=O)C(CO)c1ccccc1)C2 (stereo partly shown) [Ipratropium bromide]
IC50 [3]: 0.86 nM

Molecule: N=C(N)NCCC[C@H](N)C(=O)O [L-aminine]
Gardos channel activity, dense cell formation, hemolysis, vascular reactivity [4]: decrease Gardos channel activity, dense cell formation and homolysis, as well as functional improvements in vascular reactivity

Molecule: CCCc1nn(C)c2c(=O)[nH]c(-c3cc(S(=O)(=O)N4CCN(C)CC4)ccc3OCC)nc12 [sildenafil]
cardiac dynamics ([5]; mdx mice): improve cardiac dynamics | muscle ischemia, injury and fatigue after a brief bout of exercise ([5]; mdx mouse): alleviate muscle ischemia, as well as injury and fatigue | dystrophic skeletal muscle and survival [6]: rescue dystrophic skeletal muscle and prolong survival | PAP and exercise capacity ([7]; preliminary studies, sickle cell disease patients with severe PHT): improvements in PAP and exercise capacity | serious side effects (Walk-PHaSST trial) ([7]; sickle cell disease patients with Doppler-defined PHT, trial stopped prematurely): higher frequency of serious side effects, including increased rates of VOE, headache, and visual disturbance

Molecule: O=NO [sodium nitrite]
forearm blood flow [8]: enhanced forearm blood flow

Molecule: nitric oxide [inhaled NO]
use of parenteral morphine ([9]; randomized placebo controlled trial, acute VOE, adult patients, compared with placebos): trend towards decreased use of parenteral morphine | pain scores ([9]; randomized placebo controlled trial, acute VOE, adult patients): significantly reduced pain scores | pain scores, analgesic requirements, hospital stay ([9]; sickle cell disease children presenting with VOE): trends toward lower pain scores, decreased analgesic requirements and a shorter hospital stay
